#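 Values below derive from 48-hour exposures of cells grown in 96-well plates, with endpoints linearly interpolated between the two concentrations bracketing the appropriate inhibition level. GI50: concentration for 50% inhibition of growth. TGI is the concentration that stops growth completely.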
# Tests used:
# Assay in all cases: inhibition of tumour cell growth, NCI panel, 48 h
# [1] = tested on: UO-31 renal
# [2] = tested on: TK-10 renal
# [3] = tested on: HOP-92 NSCLC
# [4] = tested on: SK-MEL-2 melanoma
# [5] = tested on: CCRF-CEM leukemia
# [6] = tested on: NCI-H522 lung
# [7] = tested on: T-47D breast
# [8] = tested on: HS 578T breast
SMILES,GI50 [1] [µM],TGI [1] [µM],GI50 [2] [µM],TGI [2] [µM],GI50 [3] [µM],TGI [3] [µM],GI50 [4] [µM],TGI [4] [µM],GI50 [5] [µM],TGI [5] [µM],GI50 [6] [µM],TGI [6] [µM],GI50 [7] [µM],TGI [7] [µM],GI50 [8] [µM],TGI [8] [µM]
CC(=O)O[C@H]1[C@@H]2OC(=O)C(CSc3ccccc3)[C@@H]2C[C@H]2O[C@]2(C)CC/C=C(\C)CCC[C@@H]1C (some centres not stated),1.96,5.26,1.65,3.74,1.74,5.43,3.11,8.69,2.17,> 21.1,1.74,3.68,2.43,12.6,2.79,10.2
CCN(CC)C(=S)SCN1C(=O)c2ccccc2S1(=O)=O,53.9,> 100,> 52.4,> 100,> 100,> 100,> 94.4,> 100,< 0.01,0.016,0.391,> 45,36,> 100,> 100,> 100
CCOC(=O)c1cc(-c2ccccc2)[nH]c1N/N=C/c1ccc(Cl)cc1,73.6,> 100,> 100,> 100,46.9,> 100,62.6,> 100,5.86,> 100,89.4,> 100,45.5,> 100,77.7,> 100
COC(=O)c1cc2c3ccccc3[nH]c2c2sccc12,7.59,> 100,13.8,52.6,17.2,99.7,40.8,> 100,46,> 100,17.2,> 100,6.73,47.1,13.5,38.7
O=[N+]([O-])c1cc(C(F)(F)F)ccc1Sc1ccc(C(F)(F)F)cc1[N+](=O)[O-],34.8,> 100,28.3,> 100,7.96,> 100,3.32,9.96,3.47,> 100,7.14,82.4,29.2,> 100,18.6,> 100
OCCNc1nc(Nc2ccc(Cl)c(Cl)c2)nc2ccccc12,4.23,17.9,14.3,27.9,2.05,7.51,16.4,33.1,3.07,18.1,10,24.5,9.65,25.9,6.91,25.2
Cc1cc(N2CCOCC2)nc(N(CCCNc2ccnc3cc(Cl)ccc23)Cc2ccco2)n1,1.61,6.77,3.3,12.3,1.56,7.77,2.52,6.79,2.67,18.3,2.69,10.9,2.06,7.26,4.03,25.7
